Reference: ChEMBL document CHEMBL1148802, “Discovery and synthesis of HIV integrase inhibitors: development of potent and orally bioavailable N-methyl pyrimidones” (J Med Chem, 2007)

Columns and labels:
[1] = test system: Human immunodeficiency virus 1; test: Antiviral activity against HIV13b in MT4 cells assessed as decrease in HIV1 p24 core antigen in presence of fetal bovine serum; assay type: functional, 3b; settings: for IC95: Human immunodeficiency virus 1, 3b, MT4, read-out: CIC95
Homo sapiens = species: Homo sapiens; test: Protein binding in human plasma; settings: read-out: PPB (converted)
[2] = biological target: Human immunodeficiency virus type 1 integrase (Human immunodeficiency virus 1, UniProt Q7ZJM1); test: Inhibition of HIV integrase activity by HIV strand transfer assay
[3] = Plasma clearance in Sprague-Dawley rat; assay type: ADME, organism-based
[4] = Oral bioavailability in Sprague-Dawley rat; assay type: ADME, organism-based; settings: in vivo
[5] = test system: Human immunodeficiency virus 1; test: Antiviral activity against HIV1 3b in MT4 cells assessed as decrease in […] p24 core antigen in presence of normal human serum; assay type: functional; settings: for IC95: Human immunodeficiency virus 1, 3b, MT4, read-out: CIC95
[6] = AUC in Sprague-Dawley rat at 2.4 mg/kg, po; assay type: ADME, organism-based; parameters: dose 2.4 mg/kg, route oral; settings: plasma
[7] = Plasma half life in iv dosed Sprague-Dawley rat; assay type: ADME, organism-based
[8] = Distribution coefficient, log D of the compound; assay type: physicochemical; settings: octanol/water
[9] = Protein binding in Sprague-Dawley rat plasma; assay type: ADME, cell-free; settings: read-out: PPB (converted)
[10] = Oral bioavailability in Beagle dog; assay type: ADME, organism-based, Canis lupus familiaris; settings: in vivo
[11] = Plasma clearance in Beagle dog; assay type: ADME, organism-based, Canis lupus familiaris
Rattus norvegicus = test: (§1) AUC in Sprague-Dawley rat at 3 mg/kg, po; assay type: ADME, organism-based, Plasma; parameters: dose 3 mg/kg, route oral; settings: in vivo
[12] = Plasma half life in iv dosed Beagle dog; assay type: ADME, organism-based, Canis lupus familiaris
[13] = AUC in Beagle dog at 2 mg/kg, po; assay type: ADME, organism-based, Canis lupus familiaris; parameters: dose 2 mg/kg, route oral; settings: plasma
[14] = Protein binding in Beagle dog plasma; assay type: ADME, organism-based, Canis lupus familiaris; settings: read-out: PPB (converted)
[15] = AUC in Beagle dog at 1 mg/kg, po; assay type: ADME, organism-based, Canis lupus familiaris; parameters: dose 1 mg/kg, route oral; settings: plasma
[16] = as §1; assay type: ADME, organism-based, Plasma; parameters: dose 3 mg/kg, route oral; settings: Sprague-Dawley, plasma
[17] = AUC in rhesus monkey at 1 mg/kg, po; assay type: ADME, organism-based, Macaca mulatta; parameters: dose 1 mg/kg, route oral; settings: plasma
[18] = AUC in Sprague-Dawley rat at 2.3 mg/kg, po; assay type: ADME, organism-based; parameters: dose 2.3 mg/kg, route oral; settings: plasma
[19] = AUC in Beagle dog at 1.5 mg/kg, po; assay type: ADME, organism-based, Canis lupus familiaris; parameters: dose 1.5 mg/kg, route oral; settings: plasma
[20] = AUC in Beagle dog at 0.8 mg/kg, po; assay type: ADME, organism-based, Canis lupus familiaris; parameters: dose 0.8 mg/kg, route oral; settings: plasma
[21] = Plasma half life in Sprague-Dawley rat at 3 mg/kg, iv and 3 mg/kg, po; assay type: ADME, organism-based
[22] = Cmax in Beagle dog at 4 mg/kg, iv and 10 mg/kg, po; assay type: ADME, organism-based, Canis lupus familiaris; settings: in vivo
Cytochrome P450 2D6 = Cytochrome P450 2D6 (Homo sapiens, UniProt P10635); test: Inhibition of human CYP2D6 at 100 uM; assay type: ADME
[23] = Cmax in Sprague-Dawley rat at 3 mg/kg, iv and 3 mg/kg, po; assay type: ADME, organism-based; settings: in vivo
Cytochrome P450 2C19 = Cytochrome P450 2C19 (Homo sapiens, UniProt P33261); test: Inhibition of human CYP2C19 at 100 uM; assay type: ADME
[24] = Plasma clearance in rhesus monkey at 1 mg/kg, po and 1 mg/kg, iv; assay type: ADME, organism-based, Macaca mulatta
[25] = Plasma half life in Beagle dog at 4 mg/kg, iv and 10 mg/kg, po; assay type: ADME, organism-based, Canis lupus familiaris
[26] = Oral bioavailability in Beagle dog at 10 mg/kg; assay type: ADME, organism-based, Canis lupus familiaris; settings: in vivo
[27] = Oral bioavailability in rhesus monkey at 1 mg/kg; assay type: ADME, organism-based, Macaca mulatta; settings: in vivo
[28] = Plasma half life in rhesus monkey at 1 mg/kg, po and 1 mg/kg, iv; assay type: ADME, organism-based, Macaca mulatta
Cytochrome P450 3A4 = Cytochrome P450 3A4 (Homo sapiens, UniProt P08684); test: Inhibition of human CYP3A4 at 100 uM; assay type: ADME
[29] = Plasma clearance in Beagle dog at 4 mg/kg, iv and 10 mg/kg, po; assay type: ADME, organism-based, Canis lupus familiaris
Cytochrome P450 1A2 = biological target: T1, Cytochrome P450 1A2 (Homo sapiens, UniProt P05177); test: Inhibition of human CYP1A2 at 100 uM; assay type: ADME
T1 sequence (P05177 whole entry): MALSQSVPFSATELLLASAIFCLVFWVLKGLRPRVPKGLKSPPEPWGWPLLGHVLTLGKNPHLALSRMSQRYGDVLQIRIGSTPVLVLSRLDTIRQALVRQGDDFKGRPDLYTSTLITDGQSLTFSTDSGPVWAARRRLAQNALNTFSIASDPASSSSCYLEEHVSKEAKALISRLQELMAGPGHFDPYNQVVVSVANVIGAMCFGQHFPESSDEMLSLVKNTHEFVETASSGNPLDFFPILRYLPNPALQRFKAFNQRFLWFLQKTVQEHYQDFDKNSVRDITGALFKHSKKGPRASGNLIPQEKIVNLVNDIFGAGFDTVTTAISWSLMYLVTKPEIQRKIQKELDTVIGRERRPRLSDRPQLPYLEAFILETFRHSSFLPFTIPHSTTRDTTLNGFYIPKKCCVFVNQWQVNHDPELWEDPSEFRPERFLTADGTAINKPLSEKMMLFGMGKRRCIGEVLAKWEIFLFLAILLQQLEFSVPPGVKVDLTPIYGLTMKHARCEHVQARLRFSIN

[30] = Solubility at pH 7.4; assay type: physicochemical; settings: buffer
[31] = Oral bioavailability in Sprague-Dawley rat at 3 mg/kg; assay type: ADME, organism-based; settings: in vivo
[32] = Plasma clearance in Sprague-Dawley rat at 3mg/kg, iv and 3mg/kg, po; assay type: ADME, organism-based
[33] = AUC in Beagle dog at 10 mg/kg, po; assay type: ADME, organism-based, Canis lupus familiaris; parameters: dose 10 mg/kg, route oral; settings: plasma

Human immunodeficiency virus type 1 integrase, sequence (Q7ZJM1 whole entry): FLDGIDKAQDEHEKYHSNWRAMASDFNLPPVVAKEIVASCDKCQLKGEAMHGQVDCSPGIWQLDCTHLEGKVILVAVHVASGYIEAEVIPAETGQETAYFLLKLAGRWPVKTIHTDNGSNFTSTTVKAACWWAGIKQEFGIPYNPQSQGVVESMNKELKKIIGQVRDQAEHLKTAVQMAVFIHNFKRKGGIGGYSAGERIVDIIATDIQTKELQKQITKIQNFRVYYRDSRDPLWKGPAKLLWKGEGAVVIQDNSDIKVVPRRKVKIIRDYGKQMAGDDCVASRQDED
Cytochrome P450 3A4, sequence (P08684 whole entry): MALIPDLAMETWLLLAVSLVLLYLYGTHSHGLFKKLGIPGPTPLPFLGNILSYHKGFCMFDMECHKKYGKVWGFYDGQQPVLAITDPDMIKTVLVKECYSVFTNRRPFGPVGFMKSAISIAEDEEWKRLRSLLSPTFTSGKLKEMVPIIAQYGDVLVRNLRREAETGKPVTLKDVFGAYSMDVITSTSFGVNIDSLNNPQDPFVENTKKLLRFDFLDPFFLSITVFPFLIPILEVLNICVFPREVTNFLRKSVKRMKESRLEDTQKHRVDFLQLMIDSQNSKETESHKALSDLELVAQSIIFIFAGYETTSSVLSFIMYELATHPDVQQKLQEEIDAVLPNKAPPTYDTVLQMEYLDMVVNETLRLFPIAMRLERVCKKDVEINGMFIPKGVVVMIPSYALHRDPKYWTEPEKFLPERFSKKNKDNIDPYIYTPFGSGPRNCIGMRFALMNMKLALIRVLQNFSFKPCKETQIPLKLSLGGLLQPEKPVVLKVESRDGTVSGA
Cytochrome P450 2C19, sequence (P33261 whole entry): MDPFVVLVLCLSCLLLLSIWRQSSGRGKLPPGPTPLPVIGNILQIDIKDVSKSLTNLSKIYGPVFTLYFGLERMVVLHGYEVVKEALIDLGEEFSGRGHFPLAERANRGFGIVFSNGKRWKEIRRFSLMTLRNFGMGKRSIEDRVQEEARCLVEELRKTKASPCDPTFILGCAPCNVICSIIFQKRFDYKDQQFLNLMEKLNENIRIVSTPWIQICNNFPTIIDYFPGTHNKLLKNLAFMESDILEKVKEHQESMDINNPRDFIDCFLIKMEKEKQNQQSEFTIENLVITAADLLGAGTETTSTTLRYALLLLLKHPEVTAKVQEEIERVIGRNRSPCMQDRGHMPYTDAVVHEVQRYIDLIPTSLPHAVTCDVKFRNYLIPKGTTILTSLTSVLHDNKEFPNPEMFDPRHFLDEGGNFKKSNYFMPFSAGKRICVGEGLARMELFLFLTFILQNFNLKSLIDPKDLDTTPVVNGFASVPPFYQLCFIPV
Cytochrome P450 2D6, sequence (P10635 whole entry): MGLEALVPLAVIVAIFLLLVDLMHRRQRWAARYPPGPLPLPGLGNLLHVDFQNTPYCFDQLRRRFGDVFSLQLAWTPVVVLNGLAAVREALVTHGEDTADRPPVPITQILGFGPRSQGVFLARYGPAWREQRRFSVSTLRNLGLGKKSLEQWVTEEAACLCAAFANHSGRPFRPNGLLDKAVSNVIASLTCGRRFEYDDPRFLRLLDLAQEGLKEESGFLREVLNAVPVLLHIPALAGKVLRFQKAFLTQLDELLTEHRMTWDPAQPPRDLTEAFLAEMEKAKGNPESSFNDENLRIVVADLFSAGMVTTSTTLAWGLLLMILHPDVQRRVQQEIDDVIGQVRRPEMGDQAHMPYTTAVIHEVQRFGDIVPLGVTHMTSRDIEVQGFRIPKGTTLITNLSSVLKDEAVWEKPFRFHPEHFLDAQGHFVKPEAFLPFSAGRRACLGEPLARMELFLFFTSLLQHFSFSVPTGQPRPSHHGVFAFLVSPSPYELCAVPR

Structure (SMILES)	IC95 [1] [nM]	fraction unbound (Homo sapiens)	IC50 [2] [nM]	clearance [3] [mL/min/kg]	bioavailability [4] [%]	IC95 [5] [nM]	half-life [7] [h]	logD [8]	fraction unbound [9]	CIC95 [1] [µM]	bioavailability [10] [%]	CIC95 [5] [µM]	clearance [11] [mL/min/kg]	half-life [12] [h]	fraction unbound [14]	AUC [16] [µM·h]	AUC [17] [µM·h]	further results
CN1C[C@H](OCc2ccccc2)C[C@H]1c1nc(C(=O)NCc2ccc(F)cc2)c(O)c(=O)n1C	< 80	0.05	130	28	75	310	2.3	2.2	0.07	–	–	–	–	–	–	–	–	AUC [6]: 2.3 µM·h
CN1CCOCC1c1nc(C(=O)NCc2ccc(F)cc2)c(O)c(=O)n1C.Cl (single isomer, unassigned; (-))	–	–	–	18	84	–	1	–	–	90	87	190	2.6	1.9	–	–	–	AUC (Rattus norvegicus): 6 µM·h; AUC [13]: 29 µM·h
CN1CC(F)(F)C[C@H]1c1nc(C(=O)NCc2ccc(F)cc2)c(O)c(=O)n1C	30	0.12	30	11	93	170	0.6	–	0.06	–	100	–	5	6	0.15	11.8	–	AUC [15]: 9.9 µM·h
CN1CCOCC1c1nc(C(=O)NCc2ccc(F)cc2)c(O)c(=O)n1C (stereo unspecified)	–	–	–	22	92	–	1.6	0.59	0.22	0.06	100	0.1	3	10	0.53	–	1.7	AUC [18]: 4.3 µM·h; AUC [19]: 22 µM·h; AUC [20]: 11 µM·h
CN1CCOCC1c1nc(C(=O)NCc2ccc(F)cc2)c(O)c(=O)n1C.Cl (single isomer, unassigned; (+))	–	–	–	–	–	–	–	–	–	40	–	65	–	–	–	8	2.2	half-life [21]: 1.1 h; Cmax [22]: 35 µM; Activity (Cytochrome P450 2D6): Not Active; Cmax [23]: 5.6 µM; Activity (Cytochrome P450 2C19): Not Active; clearance [24]: 14 mL/min/kg; half-life [25]: 7.2 h; bioavailability [26]: 69%; bioavailability [27]: 73%; Log D [8]: 0.47; half-life [28]: 2 h; Activity (Cytochrome P450 3A4): Not Active; clearance [29]: 2.2 mL/min/kg; Activity (Cytochrome P450 1A2): Not Active; solubility [30]: 5800 µg/mL; bioavailability [31]: 56%; clearance [32]: 9 mL/min/kg; AUC [33]: 136 µM·h
